Structures can show the parent of a compound that is named as a salt.
Target: T1, Human V1b receptor (Homo sapiens, UniProt P47901)
T1 sequence (P47901 1-424): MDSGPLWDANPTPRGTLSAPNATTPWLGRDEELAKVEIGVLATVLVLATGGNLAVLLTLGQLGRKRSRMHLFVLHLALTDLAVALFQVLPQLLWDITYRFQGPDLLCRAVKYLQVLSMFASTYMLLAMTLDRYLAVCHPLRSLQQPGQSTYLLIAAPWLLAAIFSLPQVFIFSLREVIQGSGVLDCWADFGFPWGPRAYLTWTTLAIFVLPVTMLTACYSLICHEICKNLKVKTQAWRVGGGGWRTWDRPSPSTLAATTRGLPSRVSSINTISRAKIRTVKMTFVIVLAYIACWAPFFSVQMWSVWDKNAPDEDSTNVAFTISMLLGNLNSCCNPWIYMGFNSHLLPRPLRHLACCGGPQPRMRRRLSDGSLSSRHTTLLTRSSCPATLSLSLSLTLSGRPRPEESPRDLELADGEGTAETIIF
Assay: Binding test for V1b receptor ([3H]AVP displacement, crude membrane preparation)
Parameters: expressed in transfected cells; host or cells: 293FT cells (Invitrogen), transient expression; crude membrane preparation
Conditions: [3H]AVP 0.4 to 1 nmol/L; membranes of 293FT cells transiently expressing human V1b receptor; room temperature, 60 minutes
Experimental: Binding Test for V1b Receptor
Human V1b receptor was transiently expressed in 293FT cells (Invitrogen). The cells were collected and were homogenated in a 15 mmol/L tris-hydrochloric acid buffer (pH 7.4, containing 2 mmol/L magnesium chloride, 0.3 mmol/L ethylenediaminetetracetic acid, and 1 mmol/L glycol ether diaminetetraacetic acid). The resulting homogenate was centrifuged at 50,000×g at 4° C. for 20 minutes. The precipitate was resuspended in a 75 mmol/L tris-hydrochloric acid buffer (pH 7.4, containing 12.5 mmol/L magnesium chloride, 0.3 mmol/L ethylenediaminetetracetic acid, 1 mmol/L glycol ether diamine tetraacetic acid, and 250 mmol/L sucrose) to give a crude membrane preparation, which was stored at −80° C. until the binding test. In the binding test, the crude membrane preparation was diluted with a 50 mmol/L tris-hydrochloric acid buffer (pH 7.4, containing 10 mmol/L magnesium chloride and 0.1% bovine serum albumin), and test compound was serially diluted with DMSO. The diluted crude membrane preparation was incubated with each test compound (final concentration of 0.01 nmol/L to 1 μmol/L) and [^3H]AVP (final concentration: 0.4 to 1 nmol/L) at room temperature for 60 minutes. After the incubation, the mixture was suction filtered through a GF/C filter pretreated with 0.3% polyethyleneimine. The GF/C filter was dried, and a scintillator was added thereto. The radioactivity remaining on the filter was measured using TopCount (PerkinElmer Inc.). The radioactivity in the presence of 10 μmol/L of unlabeled AVP was defined as 0%, and the radioactivity in the absence of unlabeled AVP was defined as 100%. A dose-response curve was plotted from radioactivities in the presence of a test compound at various concentrations, and the 50% inhibitory concentration (IC50 value) of the compound was calculated.

Compound | IC50
COc1cc(-c2nn(-c3ccc(CCN4CCCC(OC)C4)cc3)c(=O)n2CC(=O)NC(C)C)ccc1F (stereo not drawn) [Ca-11, 2-[3-(4-Fluoro-3-methoxyphenyl)-1-{4-[2-(3-methoxypiperidin-1-yl)ethyl]phenyl}-5-oxo-1,5-dihydro-4H-1,2,4-triazol-4-yl]-N-(propan-2-yl)acetamide] | 10 to 100 nM
COc1cc(-c2nn(-c3ccc(CCN4CCN(C)CC4)cc3)c(=O)n2CC(=O)NC(C)C)ccc1F [Ca-25, 2-[3-(4-Fluoro-3-methoxyphenyl)-1-{4-[2-(4-methylpiperazin-1-yl)ethyl]phenyl}-5-oxo-1,5-dihydro-4H-1,2,4-triazol-4-yl]-N-(propan-2-yl)acetamide trifluoroacetate] | 100 to 1000 nM
CC(C)NC(=O)Cn1c(-c2ccc(F)c(Cl)c2)nn(-c2ccc(CCN3CCCOCC3)cc2)c1=O [Da-4, 2-[3-(3-Chloro-4-fluorophenyl)-1-{4-[2-(1,4-oxazepan-4-yl)ethyl]phenyl}-5-oxo-1,5-dihydro-4H-1,2,4-triazol-4-yl]-N-(propan-2-yl)acetamide] | 12 nM
CC(C)NC(=O)Cn1c(-c2ccc(F)c(Cl)c2)nn(-c2ccc(CCN3CCCCC3)cc2)c1=O [Da-1, 2-[3-(3-Chloro-4-fluorophenyl)-5-oxo-1-{4-[2-(piperidin-1-yl)ethyl]phenyl}-1,5-dihydro-4H-1,2,4-triazol-4-yl]-N-(propan-2-yl)acetamide] | 17 nM
CC(C)NC(=O)Cn1c(-c2cccc(Cl)c2)nn(-c2ccc(CCN3CC4CCC(C3)O4)cc2)c1=O [Aa-9, 2-[3-(3-Chlorophenyl)-1-{4-[2-(8-oxa-3-azabicyclo[3.2.1]oct-3-yl)ethyl]phenyl}-5-oxo-1,5-dihydro-4H-1,2,4-triazol-4-yl]-N-(propan-2-yl)acetamide] | 18 nM
CC(CO)NC(=O)Cn1c(-c2cccc(Cl)c2)nn(-c2ccc(CCN3CCOCC3)cc2)c1=O (racemic) [Ad-20, 2-[3-(3-Chlorophenyl)-1-{4-[2-(morpholin-4-yl)ethyl]phenyl}-5-oxo-1,5-dihydro-4H-1,2,4-triazol-4-yl]-N-(1-hydroxypropan-2-yl)acetamide] | 96 nM
COc1cccc(-c2nn(-c3ccc(CCN4CCOCC4)cn3)c(=O)n2CC(=O)NC(C)(C)C)c1 [Bd-1, N-Tert-Butyl-2-[3-(3-methoxyphenyl)-1-{5-[2-(morpholin-4-yl)ethyl]pyridin-2-yl}-5-oxo-1,5-dihydro-4H-1,2,4-triazol-4-yl]acetamide] | 4.1 nM
CC(C)NC(=O)Cn1c(-c2cccc(Cl)c2)nn(-c2ccc(CC(C)N3C4CCC3COC4)cn2)c1=O (single isomer, unassigned; (+)) [Ad-19-2] | 17 nM
COc1cc(-c2nn(-c3ccc(CCN4CCOCC4C)cc3)c(=O)n2CC(=O)NC(C)C)ccc1F (stereo not drawn) [Ca-22, 2-[3-(4-Fluoro-3-methoxyphenyl)-1-{4-[2-(3-methylmorpholin-4-yl)ethyl]phenyl}-5-oxo-1,5-dihydro-4H-1,2,4-triazol-4-yl]-N-(propan-2-yl)acetamide] | 10 to 100 nM
COc1cc(-c2nn(-c3ccc(CCN4CCC(C#N)CC4)cc3)c(=O)n2CC(=O)NC(C)C)ccc1F [Ca-10, 2-[1-{4-[2-(4-Cyanopiperidin-1-yl)ethyl]phenyl}-3-(4-fluoro-3-methoxyphenyl)-5-oxo-1,5-dihydro-4H-1,2,4-triazol-4-yl]-N-(propan-2-yl)acetamide] | 100 to 1000 nM
CC(C)NC(=O)Cn1c(-c2cccc(S(C)(=O)=O)c2)nn(-c2ccc(CCN3CCOCC3)cc2)c1=O [Ia-1, 2-(3-[3-(Methylsulfonyl)phenyl]-1-{4-[2-(morpholin-4-yl)ethyl]phenyl}-5-oxo-1,5-dihydro-4H-1,2,4-triazol-4-yl)-N-(propan-2-yl)acetamide] | 46 nM
COc1cc(-c2nn(-c3ccc(CCN4CC5(CCOCC5)C4)cc3)c(=O)n2CC(=O)NC(C)C)ccc1F [Ca-6, 2-[3-(4-Fluoro-3-methoxyphenyl)-1-{4-[2-(7-oxa-2-azaspiro[3.5]non-2-yl)ethyl]phenyl}-5-oxo-1,5-dihydro-4H-1,2,4-triazol-4-yl]-N-(propan-2-yl)acetamide] | 10 to 100 nM
CC(C)NC(=O)Cn1c(-c2cccc(Cl)c2)nn(-c2ccc(CC(C)N3C4CCC3COC4)cn2)c1=O (stereo not drawn) [Ad-16, 2-[3-(3-Chlorophenyl)-1-{5-[2-(3-oxa-8-azabicyclo[3.2.1]oct-8-yl)propyl]pyridin-2-yl}-5-oxo-1,5-dihydro-4H-1,2,4-triazol-4-yl]-N-(propan-2-yl)acetamide] | 0.92 nM
COc1cc(-c2nn(-c3ccc(CCN4CCC(N(C)C)CC4)cc3)c(=O)n2CC(=O)NC(C)C)ccc1F [Ca-14, 2-[1-(4-{2-[4-(Dimethylamino)piperidin-1-yl]ethyl}phenyl)-3-(4-fluoro-3-methoxyphenyl)-5-oxo-1,5-dihydro-4H-1,2,4-triazol-4-yl]-N-(propan-2-yl)acetamide] | 100 to 1000 nM
COc1cc(-c2nn(-c3ccc(CC(C)N4C5CCC4COC5)cc3)c(=O)n2CC(=O)NC(C)C)ccc1F (stereo not drawn) [Cd-2, 2-[3-(4-Fluoro-3-methoxyphenyl)-1-{4-[2-(3-oxa-8-azabicyclo[3.2.1]oct-8-yl)propyl]phenyl}-5-oxo-1,5-dihydro-4H-1,2,4-triazol-4-yl]-N-(propan-2-yl)acetamide] | 0.51 nM
COc1cc(-c2nn(-c3ccc(CCN4CCN(C(C)=O)CC4)cc3)c(=O)n2CC(=O)NC(C)C)ccc1F [Ca-26, 2-[1-{4-[2-(4-Acetylpiperazin-1-yl)ethyl]phenyl}-3-(4-fluoro-3-methoxyphenyl)-5-oxo-1,5-dihydro-4H-1,2,4-triazol-4-yl]-N-(propan-2-yl)acetamide trifluoroacetate] | 100 to 1000 nM
CC(C)(C)NC(=O)Cn1c(-c2cccc(Cl)c2)nn(-c2ccc(CCN3CCOCC3)cc2)c1=O [Ad-1, N-Tert-Butyl-2-[3-(3-chlorophenyl)-1-{4-[2-(morpholin-4-yl)ethyl]phenyl}-5-oxo-1,5-dihydro-4H-1,2,4-triazol-4-yl]acetamide] | 2.5 nM
CC(C)NC(=O)Cn1c(-c2ccc(F)c(Cl)c2)nn(-c2ccc(CCN3CCCCC3)cn2)c1=O [Db-1, 2-[3-(3-Chloro-4-fluorophenyl)-5-oxo-1-{5-[2-(piperidin-1-yl)ethyl]pyridin-2-yl}-1,5-dihydro-4H-1,2,4-triazol-4-yl]-N-(propan-2-yl)acetamide] | 16 nM
CC(C)NC(=O)Cn1c(-c2cccc(C#N)c2)nn(-c2ccc(CCN3CCOCC3)cc2)c1=O [Ea-2, 2-[3-(3-Cyanophenyl)-1-{4-[2-(morpholin-4-yl)ethyl]phenyl}-5-oxo-1,5-dihydro-4H-1,2,4-triazol-4-yl]-N-(propan-2-yl)acetamide] | 48 nM
O=C(Cn1c(-c2cccc(Cl)c2)nn(-c2ccc(CCN3CCOCC3)cc2)c1=O)NC1CCC1 [Ad-4, 2-[3-(3-Chlorophenyl)-1-{4-[2-(morpholin-4-yl)ethyl]phenyl}-5-oxo-1,5-dihydro-4H-1,2,4-triazol-4-yl]-N-cyclobutylacetamide] | 102 nM
COc1cc(-c2nn(-c3ccc(CN4CCN(C)CC4)cc3)c(=O)n2CC(=O)NC(C)C)ccc1F [Cd-4, 2-[3-(4-Fluoro-3-methoxyphenyl)-1-{4-[(4-methylpiperazin-1-yl)methyl]phenyl}-5-oxo-1,5-dihydro-4H-1,2,4-triazol-4-yl]-N-(propan-2-yl)acetamide] | 863 nM
CC(C)NC(=O)Cn1c(-c2cccc(Cl)c2)nn(-c2ccc(CC(C)N3CCOCC3)cc2)c1=O (stereo not drawn) [Ad-13, 2-[3-(3-Chlorophenyl)-1-{4-[2-(morpholin-4-yl)propyl]phenyl}-5-oxo-1,5-dihydro-4H-1,2,4-triazol-4-yl]-N-(propan-2-yl)acetamide] | 2.9 nM
COc1cc(-c2nn(-c3ccc(CCN4CCC(F)CC4)cc3)c(=O)n2CC(=O)NC(C)C)ccc1F [Ca-16, 2-[3-(4-Fluoro-3-methoxyphenyl)-1-{4-[2-(4-fluoropiperidin-1-yl)ethyl]phenyl}-5-oxo-1,5-dihydro-4H-1,2,4-triazol-4-yl]-N-(propan-2-yl)acetamide trifluoroacetate] | 10 to 100 nM
COc1cc(-c2nn(-c3ccc(CCN4CCC(C)CC4)cc3)c(=O)n2CC(=O)NC(C)C)ccc1F [Ca-9, 2-[3-(4-Fluoro-3-methoxyphenyl)-1-{4-[2-(4-methylpiperidin-1-yl)ethyl]phenyl}-5-oxo-1,5-dihydro-4H-1,2,4-triazol-4-yl]-N-(propan-2-yl)acetamide] | 10 to 100 nM

— patent US9193695B2, “1, 2, 4-triazolone derivative and use thereof as an antagonist on the arginine-vasopressin 1B receptor” (TAISHO PHARMACEUTICAL CO., LTD., priority 2010, dated 2015)
